Structures are written as SMILES.

The test concerns the target HSP90 (Homo sapiens, UniProt P07900). Put plainly: HSP90 inhibition (HSP90 IC50). It counts as biochemical.
The term IC50 denotes the point on the concentration scale where inhibition reaches its midpoint. `COc1cccc(C(=O)N[C@H]2C[C@H]3CC[C@@H](C2)N3c2ccc(C(=O)NCc3ccc(F)c(F)c3)cn2)c1C` [N-[(3,4-difluorophenyl)methyl]-6-[3-endo-({(2-methyl-3-(methyloxy)phenyl]carbonyl}amino)-8-azablcyclo[3.2.1]oct-8-yl]pyridine-3-carboxamide] returned an IC50 of less than 0.5 µM. `COc1cccc(C(=O)NC2CC3CCC(C2)N3c2ccc(C(=O)NCC3CCCO3)cn2)c1C` (stereo not drawn) [6-[3-endo-({[2-methyl-3-(methyloxy)phenyl]carbonyl}amino)-8-azabicyclo[3.2.1]oct-8-yl]-N-(tetrahydrofuran-2-ylmethyl)pyridine-3-carboxamide] registered an IC50 of 2 to 10 µM. For `CC(=O)c1ccc(N2[C@@H]3CC[C@H]2C[C@@H](NC(=O)c2cc(NC4CCC(C(F)(F)F)CC4)c(C(N)=O)cc2C)C3)nc1` (stereo partly drawn) [N-[8-(5-acetylpyridin-2-yl)-8-azabicyclo[3.2.1]oct-3-endo-yl]-2-methyl-5-{[4-(trifluoromethyl)cyclohexyl]amino} benzene-1,4-dicarboxamide], the IC50 is less than 0.5 µM.

Molecule `COc1ccccc1CNC(=O)c1ccc(N2[C@@H]3CC[C@H]2C[C@@H](NC(=O)c2cccc(OC)c2C)C3)nc1` [6-[3-endo-({[2-methyl-3-(methyloxy)phenyl]carbonyl}amino)-8-azabicyclo[3.2.1]oct-8-yl]-N-{[2-(methyloxy)phenyl]methyl}pyridine-3-carboxamide] came in with a 50% inhibitory concentration (IC50) of 1 to 2 µM.

As for `COc1cccc(C(=O)N[C@H]2C[C@H]3CC[C@@H](C2)N3c2ccc(C(=O)NCc3ccc(N4CCN(C)CC4)cc3)cn2)c1C`, the IC50 was less than 0.5 µM. In the case of `COc1cccc(C(=O)NC2CC3CCC(C2)N3c2ccc(C(=O)NC(C)c3c(F)cc(C4CCNCC4)cc3F)cn2)c1C` (stereo not drawn) [N-[1-(2,6-difluoro-4-piperidin-4-ylphenyl)ethyl]-6-[3-endo-({[2-methyl-3-(methyloxy)phenyl]carbonyl}amino)-8-azabicyclo[3.2.1]oct-8-yl]pyridine-3-carboxamide] it was 2 to 10 µM; in that of `CCC(CC)Nc1cc(C(=O)N[C@H]2C[C@H]3CC[C@@H](C2)N3c2ccc(C(=O)C3CC3)cn2)c(Cl)cc1C(N)=O` [2-chloro-N-{8-[5-(cyclopropylcarbonyl)pyridin-2-yl]-8-azabicyclo[3.2.1]oct-3-endo-yl}-5-[(1-ethylpropyl)amino]benzene-1,4-dicarboxamide], less than 0.5 µM. To `COC[C@H](C)NC(=O)c1ccc(N2C3CCC2CC(NC(=O)c2cccc(OC)c2C)C3)nc1` (stereo partly drawn) [N-[(1S)-1-methyl-2-(methyloxy)ethyl]-6-[3-endo-({[2-methyl-3-(methyloxy)phenyl]carbonyl}amino)-8-azabicyclo[3.2.1]oct-8-yl]pyridine-3-carboxamide] belongs 1 to 2 µM; to `CC(=O)Nc1cc(C(=O)N[C@H]2C[C@H]3CC[C@@H](C2)N3c2ccc(C(N)=O)cn2)ccc1C(N)=O` [2-(acetylamino)-N4-{8-[5-(aminocarbonyl)pyridin-2-yl]-8-azabicyclo[3.2.1]oct-3-endo-yl}benzene-1,4-dicarboxamide], 1 to 2 µM; to `CC(C)N1CC[C@@H](NC(=O)c2ccc(N3C4CCC3CC(NC(=O)c3ccc(C(N)=O)c(N[C@H]5CC[C@H](O)CC5)c3)C4)nc2)C1` (stereo partly drawn) [2-[(4-trans-hydroxycyclohexyl)amino]-N4-{8-[5-({[1-(1-methylethyl)pyrrolidin-3-yl]amino}carbonyl)pyridin-2-yl]-8-azabicyclo[3.2.1]oct-3-endo-yl}benzene-1,4-dicarboxamide], less than 0.5 µM. On to `CN1CCN(CCC(=O)c2ccc(N3[C@@H]4CC[C@H]3C[C@@H](NC(=O)c3ccc(C(N)=O)c(NCC5CC5)c3)C4)nc2)CC1` [2-[(cyclopropylmethyl)amino]-N4-(8-{5-[3-(4-methylpiperazin-1-yl)propanoyl]pyridin-2-yl}-8-azabicyclo[3.2.1]oct-3-endo-yl)benzene-1,4-dicarboxamide], for which the IC50 was less than 0.5 µM. In the case of `CCC(CC)Nc1cc(C(=O)NC2CC3CCC(C2)N3c2ccc(C(=O)N[C@H]3CCN(C(C)C)C3)cn2)ccc1C(N)=O` (stereo partly drawn) [2-[(1-ethylpropyl)amino]-N4-{8-[5-({[(3S)-1-(1-methylethyl)pyrrolidin-3-yl]amino}carbonyl)pyridin-2-yl]-8-azabicyclo[3.2.1]oct-3-endo-yl}benzene-1,4-dicarboxamide] it was less than 0.5 µM.

The molecule `NC(=O)c1ccc(C(=O)N[C@H]2C[C@H]3CC[C@@H](C2)N3c2ccc(C(=O)CCN3CCCCC3)cn2)cc1NCC1CC1` [2-[(cyclopropylmethyl)amino]-N4-{8-(5-(3-piperidin-1-ylpropanoyl)pyridin-2-yl]-8-azabicyclo[3.2.1]oct-3-endo-yl}benzene-1,4-dicarboxamide] had an IC50 of less than 0.5 µM.

Regarding `CCC(CC)Nc1cc(C(=O)NC2CC3CCC(C2)N3c2ccc(C(=O)N[C@H]3CCCNC3)cn2)ccc1C(N)=O` (stereo partly drawn) [2-[(1-ethylpropyl)amino]-N4-[8-(5-{[(3S)-piperidin-3-ylamino]carbonyl}pyridin-2-yl)-8-azabicyclo[3.2.1]oct-3-endo-yl]benzene-1,4-dicarboxamide], the IC50 is less than 0.5 µM.

Molecule `NC(=O)c1ccc(C(=O)N[C@H]2C[C@H]3CC[C@@H](C2)N3c2ccc(C(=O)C3CC3)cn2)s1` [N-{8-[5-(cyclopropylcarbonyl)pyridin-2-yl]-8-azabicyclo[3.2.1]oct-3-endo-yl}thiophene-2.5-dicarboxamide] yielded a 50% inhibitory concentration (IC50) of 1 to 2 µM.

For `Cc1cc(C(N)=O)c(NC(C(C)C)C(F)(F)F)cc1C(=O)N[C@H]1C[C@H]2CC[C@@H](C1)N2c1ccc(C(=O)C2CC2)cn1` (stereo partly drawn) [N-{8-[5-(cyclopropylcarbonyl)pyridin-2-yl]-8-azabicyclo[3.2.1]oct-3-endo-yl}-2-methyl-5-{[2-methyl-1-(trifluoromethyl)propyl]amino}benzene-1,4-dicarboxamide], the half-maximal inhibitory concentration (IC50) was less than 0.5 µM. To `COc1cccc(C(=O)N[C@H]2C[C@H]3CC[C@@H](C2)N3c2ccc(C(=O)NCc3cc(OC)c(OC)c(OC)c3)cn2)c1C` [6-[3-endo-({[2-methyl-3-(methyloxy)phenyl]carbonyl}amino)-8-azabicyclo[3.2.1]oct-8-yl]-N-{[3,4,5-tris(methyloxy)phenyl]methyl}pyridine-3-carboxamide] belongs 1 to 2 µM. The molecule `COc1cccc(C(=O)N[C@H]2C[C@H]3CC[C@@H](C2)N3c2ccc(C(=O)NCCCC(OC)OC)cn2)c1C` [N-[4,4-bis(methyloxy)butyl]-6-[3-endo-({[2-methyl-3-(methyloxy)phenyl]carbonyl}amino)-8-azabicyclo[3.2.1]oct-8-yl]pyridine-3-carboxamide] displayed an IC50 of 1 to 2 µM. The molecule `CCCNc1cc(C(=O)N[C@H]2C[C@H]3CC[C@@H](C2)N3c2ccc(C(C)=O)cn2)ccc1C(N)=O` [N4-[8-(5-acetylpyridin-2-yl)-8-azabicyclo[3.2.1]oct-3-endo-yl]-2-(propylamino)benzene-1,4-dicarboxamide] gave an IC50 of less than 0.5 µM.

The molecule `NC(=O)c1ccc(C(=O)N[C@H]2C[C@H]3CC[C@@H](C2)N3c2ccc(C(=O)NCc3ccccc3)cn2)cc1` [N-[8-(5-{[(phenylmethyl)amino]carbonyl}pyridin-2-yl)-8-azabicyclo[3.2.1]oct-3-endo-yl]benzene-1,4-dicarboxamide] came in with an IC50 of less than 0.5 µM. In turn, `CCC(C)Oc1cc(C(=O)N[C@H]2C[C@H]3CC[C@@H](C2)N3c2ccc(C(=O)C3CC3)cn2)c(C)cc1C(N)=O` (some centres unmarked) yielded an IC50 of less than 0.5 µM. In the case of `CCN(CC)CCOc1cccc(CNC(=O)c2ccc(N3[C@@H]4CC[C@H]3C[C@@H](NC(=O)c3cccc(OC)c3C)C4)nc2)c1` [N-[(3-{[2-(diethylamino)ethyl]oxy}pheny)methyl]-6-[3-endo-({[2-methyl-3-(methyloxy)phenyl]carbonyl}amino)-8-azabicyclo[3.2.1]oct-8-yl]pyridine-3-carboxamide] it was less than 0.5 µM; in that of `CCc1cc(C(N)=O)c(N[C@H](C)CC)cc1C(=O)NC1CC2CCC(C1)N2c1ccc(C(=O)C2CC2)cn1` (stereo partly drawn) [N-{8-[5-(cyclopropylcarbonyl)pyridin-2-yl]-8-azabicyclo[3.2.1]oct-3-endo-yl}-2-ethyl-5-{[(1R)-1-methylpropyl]amino}benzene-1,4-dicarboxamide], less than 0.5 µM.

The molecule `Cc1cc(C(N)=O)c(NCC2CC2)cc1C(=O)N[C@H]1C[C@H]2CC[C@@H](C1)N2c1ccc(C(=O)C2CC2)cn1` [N-{8-[5-(cyclopropylcarbonyl)pyridin-2-yl]-8-azabicyclo[3.2.1]oct-3-endo-yl)-5-[(cyclopropylmethyl)amino]-2-methylbenzene-1,4-dicarboxamide] yielded a 50% inhibitory concentration (IC50) of less than 0.5 µM.

In turn, `COc1cccc(C(=O)N[C@H]2C[C@H]3CC[C@@H](C2)N3c2ccc(C(=O)NCc3ccc(N4CCN(C)CC4)c(F)c3)cn2)c1C` [N-{[3-fluoro-4-(4-methylpiperazin-1-yl)phenyl]methyl}-6-[3-endo-({[2-methyl-3-(methyloxy)phenyl]carbonyl}amino)-8-azabicyclo[3.2.1]oct-8-yl]pyridine-3-carboxamide] came in with an IC50 of less than 0.5 µM. In the case of `NC(=O)c1ccc(N2[C@@H]3CC[C@H]2C[C@@H](NC(=O)c2ccc(CO)cc2)C3)nc1` [6-[3-endo-({[4-(hydroxymethyl)phenyl]carbonyl}amino)-8-azabicyclo[3.2.1]oct-8-yl]pyridine-3-carboxamide], the IC50 was less than 0.5 µM. To `CC(C)CCC(=O)c1ccc(N2[C@@H]3CC[C@H]2C[C@@H](NC(=O)c2ccc(C(N)=O)c(NCC4CC4)c2)C3)nc1` [2-[(cyclopropylmethyl)amino]-N4-{8-[5-(4-methylpentanoyl)pyridin-2-yl]-8-azabicyclo[3.2.1]oct-3-endo-yl}benzene-1,4-dicarboxamide] belongs less than 0.5 µM; to `O=C(NCc1cccnc1)c1ccc(N2[C@@H]3CC[C@H]2C[C@@H](NC(=O)c2ccc(CO)cc2)C3)nc1` [6-[3-endo-({[4-(hydroxymethyl)phenyl]carbonyl}amino)-8-azabicyclo[3.2.1]oct-8-yl]-N-(pyridin-3-ylmethyl)pyridine-3-carboxamide], less than 0.5 µM; to `CCN1CCC[C@H](NC(=O)c2ccc(N3C4CCC3CC(NC(=O)c3cc(C)c(C(N)=O)cc3C)C4)nc2)C1` (stereo partly drawn) [N-{8-[5-({[(3S)-1-ethylpiperidin-3-yl]amino}carbonyl)pyridin-2-yl]-8-azabicyclo[3.2.1]oct-3-endo-yl}-2 5-dimethylbenzene-1,4-dicarboxamide], 0.5 to 0.999 µM.
